Source: patent US20240293421A1, “CRYSTALLINE COMPOSITION OF TILDACERFONT AND METHODS OF USE AND PREPARATION THEREOF” (Spruce Biosciences, Inc., priority 2021, published 2024)

Legend:
[1] = Stability under accelerated aging conditions (40±2° C./75±5% RH); format: physicochemical; parameters: key to Related Substances by HPLC: a. C07102401-F-Imp1 / Related Substances by HPLC: b. C07102401-F-Imp2 / Related Substances by HPLC: c. Any unspecified impurity / Related Substances by HPLC: d. Total impurities: BDRL: below disregard limit; settings: for Description / Identification by FT-IR / Identification by XRPD / Related Substances by HPLC: a. C07102401-F-Imp1 / Related Substances by HPLC: b. C07102401-F-Imp2 / Related Substances by HPLC: c. Any unspecified impurity / Related Substances by HPLC: d. Total impurities / Water Content by KF / Assay of Compound 1 by HPLC: accelerated aging 40±2° C./75±5% RH; for Assay of Compound 1 by HPLC: on anhydrous basis and solvent free basis
Source text: (§1) To determine the stability of the crystalline compositions prepared comprising the methods described herein, crystalline compositions comprising Compound 1 and oxalic acid were formulated. Samples of the crystalline composition comprising Compound 1-oxalic acid co-crystal were packed in a transparent low-density polyethylene (LDPE) bag, and closed by twisting the bag and tying it with a strip seal. The transparent LDPE bag was then placed in a black LDPE bag that was twisted and tied with a strip seal. The bags were then placed in a high-density polyethylene container. The samples were then subjected to accelerated aging conditions (40±2° C./75±5% relative humidity (RH)) or long-term storage conditions (25±2° C./60±5% RH). Sample stability measurements in each condition were measured at baseline (before exposure to accelerated aging conditions or long-term storage conditions), and one month, two months, and three months after exposure to said conditions. Sample stability measurements included a description of the sample's physical appearance (e.g., color and form), identification by Fourier-transform infrared spectroscopy (FT-IR), identification by X-ray powder diffraction (XRPD), water content (measured by Karl Fischer (KF) on a % weight/weight basis), identification of related substances (e.g., impurities), and high-performance liquid chromatography ((HPLC) measured on a % weight/weight on an anhydrous basis and solvent free basis). Samples of the crystalline composition comprising Compound 1-oxalic acid co-crystal prepared in Example 3 are subjected to accelerated aging conditions (40±2° C./75±5% relative humidity (RH)) or long-term storage conditions (25±2° C./60±5% RH). Sample stability measurements in each condition are measured at baseline (before exposure to accelerated aging conditions or long-term storage conditions), and four months, five months, six months, seven months, eight months, nine months, ten months, eleven months, twelve months, fourteen months, sixteen months, and eighteen months after exposure to said conditions. Sample stability measurements include a description of the sample's physical appearance (e.g., color and form), identification by Fourier-transform infrared spectroscopy (FT-IR), identification by X-ray powder diffraction (XRPD), water content (measured by Karl Fischer (KF) on a % weight/weight basis), identification of related substances (e.g., impurities), and high-performance liquid chromatography ((HPLC) measured on a % weight/weight on an anhydrous basis and solvent free basis).

[2] = Stability under long-term storage conditions (25±2° C./60±5% RH); format: physicochemical; parameters: key to Related Substances by HPLC: a. C07102401-F-Imp1 / Related Substances by HPLC: b. C07102401-F-Imp2 / Related Substances by HPLC: c. Any unspecified impurity / Related Substances by HPLC: d. Total impurities: BDRL: below disregard limit; settings: for Description / Identification by FT-IR / Identification by XRPD / Related Substances by HPLC: a. C07102401-F-Imp1 / Related Substances by HPLC: b. C07102401-F-Imp2 / Related Substances by HPLC: c. Any unspecified impurity / Related Substances by HPLC: d. Total impurities / Water Content by KF / Assay of Compound 1 by HPLC: long-term storage 25±2° C./60±5% RH; for Assay of Compound 1 by HPLC: on anhydrous basis and solvent free basis
Source text: as §1

CCC(CC)c1cc(C)nc2c(-c3sc(N4CCOCC4)nc3Cl)c(C)nn12 [Compound 1-oxalic acid co-crystal]
Description ([1]; 1 month): Light yellow | Identification by FT-IR ([1]; 1 month): concordant | Identification by XRPD ([1]; 1 month): is consistent | Related Substances by HPLC: a. C07102401-F-Imp1 ([1]; 1 month): BDRL | Related Substances by HPLC: b. C07102401-F-Imp2 ([1]; 1 month): BDRL | Related Substances by HPLC: c. Any unspecified impurity ([1]; 1 month): BDRL | Related Substances by HPLC: d. Total impurities ([1]; 1 month): BDRL | Water Content by KF ([1]; 1 month): 0.09 % w/w | Description ([1]; 2 months): Light yellow | Identification by FT-IR ([1]; 2 months): concordant | Identification by XRPD ([1]; 2 months): is consistent | Related Substances by HPLC: a. C07102401-F-Imp1 ([1]; 2 months): BDRL | Related Substances by HPLC: b. C07102401-F-Imp2 ([1]; 2 months): BDRL | Related Substances by HPLC: c. Any unspecified impurity ([1]; 2 months): BDRL | Related Substances by HPLC: d. Total impurities ([1]; 2 months): BDRL | Water Content by KF ([1]; 2 months): 0.02 % w/w | Description ([1]; 3 months): Light yellow | Identification by FT-IR ([1]; 3 months): concordant | Identification by XRPD ([1]; 3 months): is consistent | Related Substances by HPLC: a. C07102401-F-Imp1 ([1]; 3 months): BDRL | Related Substances by HPLC: b. C07102401-F-Imp2 ([1]; 3 months): BDRL | Related Substances by HPLC: c. Any unspecified impurity ([1]; 3 months): BDRL | Related Substances by HPLC: d. Total impurities ([1]; 3 months): BDRL | Water Content by KF ([1]; 3 months): 0.08 % w/w | Description ([1]; baseline): Light yellow | Identification by FT-IR ([1]; baseline): concordant | Identification by XRPD ([1]; baseline): is consistent | Related Substances by HPLC: a. C07102401-F-Imp1 ([1]; baseline): BDRL | Related Substances by HPLC: b. C07102401-F-Imp2 ([1]; baseline): BDRL | Related Substances by HPLC: c. Any unspecified impurity ([1]; baseline): BDRL | Related Substances by HPLC: d. Total impurities ([1]; baseline): BDRL | Water Content by KF ([1]; baseline): 0.02 % w/w | Assay of Compound 1 by HPLC ([1]; 1 month): 99.2 % w/w | Assay of Compound 1 by HPLC ([1]; 2 months): 100.1 % w/w | Assay of Compound 1 by HPLC ([1]; 3 months): 99.2 % w/w | Assay of Compound 1 by HPLC ([1]; baseline): 99.9 % w/w | Stability (overall conclusion) ([1]; up to 3 months at accelerated aging conditions (40±2° C./75±5% RH)): stable | Description ([2]; 1 month): Light yellow | Identification by FT-IR ([2]; 1 month): concordant | Identification by XRPD ([2]; 1 month): is consistent | Related Substances by HPLC: a. C07102401-F-Imp1 ([2]; 1 month): BDRL | Related Substances by HPLC: b. C07102401-F-Imp2 ([2]; 1 month): BDRL | Related Substances by HPLC: c. Any unspecified impurity ([2]; 1 month): BDRL | Related Substances by HPLC: d. Total impurities ([2]; 1 month): BDRL | Water Content by KF ([2]; 1 month): 0.10 % w/w | Description ([2]; 2 months): Light yellow | Identification by FT-IR ([2]; 2 months): concordant | Identification by XRPD ([2]; 2 months): is consistent | Related Substances by HPLC: a. C07102401-F-Imp1 ([2]; 2 months): BDRL | Related Substances by HPLC: b. C07102401-F-Imp2 ([2]; 2 months): BDRL | Related Substances by HPLC: c. Any unspecified impurity ([2]; 2 months): BDRL | Related Substances by HPLC: d. Total impurities ([2]; 2 months): BDRL | Water Content by KF ([2]; 2 months): 0.03 % w/w | Description ([2]; 3 months): Light yellow | Identification by FT-IR ([2]; 3 months): concordant | Identification by XRPD ([2]; 3 months): is consistent | Related Substances by HPLC: a. C07102401-F-Imp1 ([2]; 3 months): BDRL | Related Substances by HPLC: b. C07102401-F-Imp2 ([2]; 3 months): BDRL | Related Substances by HPLC: c. Any unspecified impurity ([2]; 3 months): BDRL | Related Substances by HPLC: d. Total impurities ([2]; 3 months): BDRL | Water Content by KF ([2]; 3 months): 0.05 % w/w | Description ([2]; baseline): Light yellow | Identification by FT-IR ([2]; baseline): concordant | Identification by XRPD ([2]; baseline): is consistent | Related Substances by HPLC: a. C07102401-F-Imp1 ([2]; baseline): BDRL | Related Substances by HPLC: b. C07102401-F-Imp2 ([2]; baseline): BDRL | Related Substances by HPLC: c. Any unspecified impurity ([2]; baseline): BDRL | Related Substances by HPLC: d. Total impurities ([2]; baseline): BDRL | Water Content by KF ([2]; baseline): 0.02 % w/w | Assay of Compound 1 by HPLC ([2]; 1 month): 99.2 % w/w | Assay of Compound 1 by HPLC ([2]; 2 months): 100.1 % w/w | Assay of Compound 1 by HPLC ([2]; 3 months): 99.2 % w/w | Assay of Compound 1 by HPLC ([2]; baseline): 99.9 % w/w | Stability (overall conclusion) ([2]; up to 3 months at long-term storage conditions (25±2° C./60±5% RH)): stable
